Measurements: ChEMBL document CHEMBL3526069, “Human pharmacokinetic prediction of UDP-glucuronosyltransferase substrates with an animal scale-up approach” (Drug Metab Dispos, 2011)

How the values were obtained:
[1] = Plasma clearance in human
[2] = Drug metabolism in human assessed as glucuronide concentration in urine
[3] = in vitro; conditions: mouse
Description: Ratio of drug level in blood to plasma in mouse

[4] = in vitro; conditions: rhesus monkey, plasma
Description: Fraction unbound in monkey plasma by ultracentrifugation method

[5] = in vitro; conditions: rat, plasma
Description: (§1) Fraction unbound in rat plasma by ultracentrifugation method

[6] = in vitro; conditions: rhesus monkey
Description: Ratio of drug level in blood to plasma in monkey

[7] = in vitro; conditions: mouse, plasma
Description: Fraction unbound in mouse plasma by ultracentrifugation method

[8] = in vitro; conditions: dog, plasma
Description: Fraction unbound in dog plasma by ultracentrifugation method

[9] = in vitro; conditions: dog
Description: Ratio of drug level in blood to plasma in dog

[10] = in vitro; conditions: human, plasma
Description: (§2) Fraction unbound in human plasma by ultracentrifugation method

[11] = Plasma clearance in po dosed human
[12] = Drug metabolism in bile duct-cannulated cynomolgus monkey assessed as glucuronide concentration in bile and urine at 0.2 mg/kg, iv up to 24 hrs by LC/MS/MS analysis; conditions: in vivo
[13] = Drug metabolism in bile duct-cannulated dog assessed as glucuronide concentration in bile and urine at 0.2 mg/kg, iv up to 24 hrs by LC/MS/MS analysis; assay type: ADME, organism-based, Canis lupus familiaris; set-up: dose 0.2 mg/kg, route intravenous; conditions: in vivo
[14] = in vitro; conditions: human
Description: Ratio of drug level in blood to plasma in human

[15] = Drug metabolism in bile duct-cannulated rat assessed as glucuronide concentration in bile and urine at 0.2 mg/kg, iv up to 24 hrs by LC/MS/MS analysis; assay type: ADME, organism-based; set-up: dose 0.2 mg/kg, route intravenous; conditions: in vivo
[16] = Drug metabolism in gallbladder-cannulated mouse assessed as glucuronide concentration in bile and urine at 0.2 mg/kg, iv up to 24 hrs by LC/MS/MS analysis; assay type: ADME, organism-based; set-up: dose 0.2 mg/kg, route intravenous; conditions: in vivo
[17] = clinical; conditions: human, in vivo
Description: (§3) Volume of distribution at steady state in human

[18] = in vitro; conditions: rat
Description: Ratio of drug level in blood to plasma in rat

[19] = clinical; conditions: human, in vivo; remark: listed apart in the source
[20] = system: Plasma; conditions: human
Description: as §2

[21] = species: Homo sapiens; conditions: in vivo
[22] = system: Plasma; conditions: rat
Description: as §1

[23] = species: Homo sapiens; conditions: in vivo; remark: listed apart in the source
Description: as §3

Row | Structure (SMILES) | Fm [2] | blood plasma ratio [3] | fraction unbound [4] | fraction unbound [5] | blood plasma ratio [6] | fraction unbound [7] | fraction unbound [8] | blood plasma ratio [9] | fraction unbound [10] | Fm [12] | Fm [13] | blood plasma ratio [14] | Fm [15] | Fm [16] | Vd [17] | blood plasma ratio [18] | half-life [19] | CL/F ([11]; plasma) | clearance ([1]; plasma) | further results
1 | Cc1ccc(C)c(OCCCC(C)(C)C(=O)O)c1 [GEMFIBROZIL] | 0.4 | 0.68 | 0.007 | 0.01 | 0.67 | 0.041 | 0.004 | 0.64 | 0.005 | 0.35 | 0.69 | 0.75 | 0.366 | 0.173 | 1.11 L/kg | 0.83 | 7.6 h | – | – | clearance ([1]; in vivo): 1.7 mL/min/kg; CL/F ([11]; in vivo): 1.73 mL/min/kg
2 | CCCc1nc2c(C)cc(-c3nc4ccccc4n3C)cc2n1Cc1ccc(-c2ccccc2C(=O)O)cc1 | – | 0.54 | 0.008 | 0.007 | 1.16 | 0.071 | 0.018 | 1.18 | 0.003 | 0.47 | 0.99 | 1.24 | 0.396 | 0.118 | – | 1.25 | 7.29 h | 17.8 mL/min/kg | – | –
3 | O=C([O-])Cc1ccccc1Nc1c(Cl)cccc1Cl.[Na+] [DICLOFENAC SODIUM] | 0.15 | 0.67 | 0.005 | 0.006 | 1.01 | 0.005 | 0.003 | 1.01 | 0.003 | 0.29 | 0.522 | 0.71 | 0.065 | 0.261 | 0.22 L/kg | 1.57 | 0.726 h | – | – | clearance ([1]; in vivo): 3.5 mL/min/kg; CL/F ([11]; in vivo): 6.48 mL/min/kg
4 | CC(C(=O)O)c1cccc(C(=O)c2ccccc2)c1 (stereo not drawn) [KETOPROFEN] | – | – | – | – | – | – | – | – | – | – | 0.163 | – | – | 0.01 | – | – | – | – | – | –
5 | Cc1cn([C@H]2C[C@H](N=[N+]=[N-])[C@@H](CO)O2)c(=O)[nH]c1=O [ZIDOVUDINE] | 0.85 | – | – | 0.734 | – | 0.896 | 0.827 | – | 0.695 | 0.08 | 0.134 | – | 0.02 | 0.034 | – | – | 0.832 h | 33.3 mL/min/kg | – | –
6 | C[C@H]1COc2c(N3CCN(C)CC3)c(F)cc3c(=O)c(C(=O)O)cn1c23.Cl [LEVOFLOXACIN HYDROCHLORIDE] | < 0.015 | – | 0.871 | 0.826 | – | – | 0.922 | – | 0.784 | 0.82 | 0.061 | – | 0.644 | 0.229 | 1.2 L/kg | – | 7.3 h | 1.9 mL/min/kg | 1.9 mL/min/kg | –
7 | COc1c(C)c2c(c(O)c1C/C=C(\C)CCC(=O)O)C(=O)OC2 [MYCOPHENOLIC ACID] | 0.9 | 0.81 | 0.011 | 0.004 | 0.97 | 0.028 | 0.003 | 0.75 | – | 0.54 | 0.99 | 0.69 | 0.096 | 0.966 | 4.75 L/kg | 0.94 | 16.6 h | 3.54 mL/min/kg | 3.31 mL/min/kg | Fu [20]: 0.003
8 | O=C(c1ccc(OCCN2CCCCC2)cc1)c1c(-c2ccc(O)cc2)sc2cc(O)ccc12 [RALOXIFENE] | 0.9 | – | 0.004 | – | – | 0.006 | 0.003 | – | 0.002 | 0.38 | 0.196 | – | 0.214 | 0.243 | – | – | – | – | 14.7 mL/min/kg | t1/2 [21]: 36.9 h; Fu [22]: 0.004; Vdss [23]: 47 L/kg
9 | COc1ccc2c(c1)c(CC(=O)O)c(C)n2C(=O)c1ccc(Cl)cc1 [INDOMETHACIN] | 0.217 | 0.46 | 0.005 | 0.004 | 1.06 | 0.009 | 0.005 | 0.65 | – | 0.94 | 0.01 | 0.98 | 0.004 | 0.001 | 0.925 L/kg | 0.97 | 6.77 h | 1.58 mL/min/kg | 1.58 mL/min/kg | Fu [20]: 0.1
10 | CN(C)CCCN1c2ccccc2CCc2ccccc21.Cl [IMIPRAMINE HYDROCHLORIDE] | 0.1 | – | 0.03 | – | – | 0.063 | – | – | 0.104 | 0.04 | 0.005 | – | 0.014 | – | 12 L/kg | – | 10.7 h | – | – | –
11 | NS(=O)(=O)c1cc(C(=O)O)c(NCc2ccco2)cc1Cl [FUROSEMIDE] | 0.14 | – | – | – | – | – | – | – | – | 0.671 | 0.17 | – | 0.052 | 0.005 | – | – | – | – | – | –
12 | O=C1Nc2ccc(Cl)cc2C(c2ccccc2Cl)=NC1O (stereo not drawn) [LORAZEPAM] | 0.81 | 0.92 | 0.103 | 0.09 | 0.87 | 0.158 | 0.073 | 0.77 | 0.057 | 0.53 | 0.785 | 1.14 | 0.085 | 0.436 | – | 1.09 | 12.4 h | 1.21 mL/min/kg | 1.21 mL/min/kg | –
